Consider four compounds from patent publication CN107308170A, “药物联用在制备抗炎药物中的应用以及抗炎药物组合物” (priority 2017, dated 2017).

Data set [1] relates to xylene-induced swelling of the mouse right ear (二甲苯所致的小鼠右耳肿胀). Briefly: 二甲苯致小鼠耳肿胀抗炎试验 (xylene-induced mouse ear swelling test). It counts as in vivo. Particulars: oral gavage; for inhibition of xylene-induced right ear swelling (in words) / swelling degree compared with aspirin (in words): used alone, 10mg/kg; for swelling degree compared with aspirin (in words): versus aspirin 150mg/kg.

The subject of the next data set is Hep-2 cells (Hep-2细胞). It counts as cell-based. Particulars: 3 days, MTT.

With `C[C@]12CC[C@H](O)C[C@H]1CC[C@@H]1[C@@H]2CC[C@]2(C)[C@@H](c3ccc(=O)oc3)C[C@H]3O[C@]132` [酯蟾毒配基], in data set [1] (5 days), the “inhibition of xylene-induced right ear swelling (in words)” value (“inhibition” below) is recorded as “能够抑制二甲苯所致的小鼠右耳肿胀” and the “swelling degree compared with aspirin (in words)” value is recorded as “肿胀度大于阳性对照药阿司匹林”. Moreover, the “CC50 compared with the three-component combination (in words)” value in the data set with Hep-2 cells (Hep-2细胞) is reported as “远远小于蟾毒灵、酯蟾毒配基以及远华蟾蜍精三者的组合”.

In turn, `CC(=O)Oc1ccccc1C(=O)O` [阿司匹林, reference compound] registered a swelling degree in data set [1] (aspirin 150mg/kg, once daily for 5 days, xylene 50μL on right ear 1h after last dose, ears weighed 1h later) of 8.56 mg. In addition, the “anti-inflammatory effect compared between aspirin and test substances (in words)” value in data set [1] (aspirin 150mg/kg, test substances 10mg/kg, 5 days) is “优于蟾毒灵、酯蟾毒配基或远华蟾蜍精”.

Regarding `C[C@]12CC[C@H](O)C[C@@]1(O)CC[C@@H]1[C@@H]2CC[C@]2(C)[C@@H](c3ccc(=O)oc3)CC[C@]12O` [远华蟾蜍精], in data set [1] (5 days), the “inhibition” value is recorded as “能够抑制二甲苯所致的小鼠右耳肿胀” and the “swelling degree compared with aspirin (in words)” value is recorded as “肿胀度大于阳性对照药阿司匹林”. Besides, in the data set on Hep-2 cells (Hep-2细胞), the “CC50 compared with the three-component combination (in words)” value was “远远小于蟾毒灵、酯蟾毒配基以及远华蟾蜍精三者的组合”.

`C[C@]12CC[C@H](O)C[C@H]1CC[C@@H]1[C@@H]2CC[C@]2(C)[C@@H](c3ccc(=O)oc3)CC[C@]12O` [蟾毒灵]: in data set [1] (5 days), the “inhibition” value is reported as “能够抑制二甲苯所致的小鼠右耳肿胀” and the “swelling degree compared with aspirin (in words)” value was “肿胀度大于阳性对照药阿司匹林”. Besides, the “CC50 compared with the three-component combination (in words)” value with Hep-2 cells (Hep-2细胞) is “远远小于蟾毒灵、酯蟾毒配基以及远华蟾蜍精三者的组合”.
